How the values were obtained:
Cyp20-3 [1] = biological target: T1, Cyp20-3 (Arabidopsis thaliana, UniProt P34791, C206S); test: PPIase activity assay (chymotrypsin-coupled), […] 12-OPDA; type: biochemical
T1 construct: recombinant Cyp20-3 C129S variant, His6-tag not cleaved

Cyp20-3 [2] = biological target: T2, Cyp20-3 (Arabidopsis thaliana, UniProt P34791, C248S); test: ITC (single-site fit, poor fit noted); type: binding
T2 construct: recombinant Cyp20-3 C171S variant, His6-tag not cleaved

Cyp20-3 [3] = biological target: T3, Cyp20-3 (Arabidopsis thaliana, UniProt P34791); test: ITC (single-site fit, poor fit noted); intrinsic fluorescence quenching; PPIase activity; type: binding
T3 construct: recombinant Cyp20-3 WT, His6-tag not cleaved
T3 sequence (P34791 78-260): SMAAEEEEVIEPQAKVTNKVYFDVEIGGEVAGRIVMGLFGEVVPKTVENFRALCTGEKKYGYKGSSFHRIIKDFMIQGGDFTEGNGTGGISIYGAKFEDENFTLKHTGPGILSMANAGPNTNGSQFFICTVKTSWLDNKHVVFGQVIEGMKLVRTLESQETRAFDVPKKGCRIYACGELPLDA

T2 sequence (P34791 78-260 C248S): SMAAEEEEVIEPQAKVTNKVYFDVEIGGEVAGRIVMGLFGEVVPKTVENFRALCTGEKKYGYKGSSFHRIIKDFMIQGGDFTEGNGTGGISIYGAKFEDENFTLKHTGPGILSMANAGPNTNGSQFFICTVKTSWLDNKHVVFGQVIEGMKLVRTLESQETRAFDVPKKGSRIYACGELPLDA
T1 sequence (P34791 78-260 C206S): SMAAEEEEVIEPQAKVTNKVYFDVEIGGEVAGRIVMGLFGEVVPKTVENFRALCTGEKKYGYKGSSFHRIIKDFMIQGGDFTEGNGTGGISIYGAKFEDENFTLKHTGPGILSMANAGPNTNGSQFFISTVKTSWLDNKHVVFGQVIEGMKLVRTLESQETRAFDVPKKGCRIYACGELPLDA

CC/C=C\C[C@@H]1C(=O)C=C[C@@H]1CCCCCCCC(=O)O [12-OPDA, 12-oxophytodienoic acid]
PPIase activity assay (chymotrypsin-coupled), 26 μM 12-OPDA (Cyp20-3 [1]): 12-OPDA stimulated the activity of oxidized Cyp20-3 WT and C129S to a similar extent | Kd (Cyp20-3 [2]): 26 ± 8 µM | Kd (Cyp20-3 [3]): 35.7 ± 9 µM

Source: publication PMC8003295, “The In Vitro Interaction of 12-Oxophytodienoic Acid and Related Conjugated Carbonyl Compounds with Thiol Antioxidants” (Biomolecules, 2021)
